In publication PMC9748900, “Unconventional isoquinoline-based SERMs elicit fulvestrant-like transcriptional programs in ER+ breast cancer cells” (NPJ Breast Cancer, 2022):
“Also recorded” adds a separate entry of the source.

Experiments:
[1] = system: gene expression in T47D breast cancer cells; assay: qPCR gene expression in T47D cells; format: cell-based; conditions: 1 μM + 1 nM E2, 16 h
[2] = system: Ishikawa endometrial cells; assay: Alkaline phosphatase (AP) assay in Ishikawa cells; format: cell-based, human; conditions: 1 nM E2 or 1 μM compound, 72 h, absorbance at 405 nm, mean + std. dev., n = 3-9
Source text: SERM enhancement of ERα accumulation in breast cancer cells correlates with uterotrophic activities[22],[30]. Despite the inclusion of side arms from known SERDs, most T6Is appeared SERM-like in breast cancer cells as they increased ERα levels. To measure the SERM-agonist activities of the T6Is, we employed an AP activity assay in Ishikawa endometrial cells[22],[32],[40]. […] Many T6Is show unexpected AP activities in these cells. […] Therefore, we would expect these SERMs to show a greater induction of AP (Supplementary Fig. 5). […] This difference was significant (p = 0.004) compared to 4OHT, which measured 0.68 ± 0.12 absorbance units. In most studies of SERM-agonist activities, AP assays are combined with increases in uterine wet-weight in vivo[22],[41],[42].
AP assays were performed as described. Briefly, 15,000 Ishikawa cells were seeded into 96-well plates then placed in serum-starved medium for 48–72 h. Cells were treated for three days with veh, hormone, SERM, or SERD. The media was aspirated and the cells were frozen at −80 °C for at least 24 h. Cells were thawed then incubated with p-nitrophenyl phosphate (ThermoFisher) chromogenic AP substrate. After 60 min at 40 °C, absorbance was read at 405 nm on a BioTek Cytation 5 plate reader.

[3] = system: gene expression in MCF7:WS8 breast cancer cells; assay: qPCR gene expression in MCF7:WS8 cells
SUMO1 = SUMO1 immunofluorescence in T47D cells; format: cell-based; conditions: 1 µM, 16 h
Experimental: Immunofluorescence was used to study the effects of these treatments on SUMO1 protein expression in these cells. […] Cellular localization was resolved using phalloidin to stain actin and DAPI to stain nuclei. […] Further studies are needed to decipher the role and estrogen dependence of SUMO1 in ER + breast cancer pathology.
T47D cells were cultured on coverslips for 24 h followed by 48 h growth in serum starved media. […] Cells were fixed for 10 min with 4% paraformaldehyde at room temperature was followed by three washes with ice-cold PBS-T (0.1% Tween 20, PBS) and 10 min of permeabilization with 0.5% saponin in PBS. Blocking was performed with 1% bovine serum albumin (BSA) in PBS-T for 30 min. Cells were incubated in a humidified chamber with 1:500 rabbit monoclonal anti-SUMO1 antibody (Abcam Ltd, Cambridge, UK, ab32058) in 1% BSA for 1 h at room temperature. Cells were washed 3 times with PBS-T, then incubated in the dark for 1 h with 1:1000 goat anti-rabbit IgG H&L (Alexa Fluor® 488) antibody (Abcam Ltd, ab150077) as well as 1:1000 phalloidin-iFluor 594 reagent (Abcam Ltd, ab176757) in 1% BSA. […] Quantification of nuclear fluorescent signal was performed using ImageJ 1.53t software. Fluorescent intensity of all nuclei within captured frames were measured and normalized by subtracting mean background fluorescence of 5 representative areas.

[4] = system: transcriptome of T47D breast cancer cells; assay: RNA sequencing of T47D cells; format: cell-based
Experimental: We next used RNA transcriptomic analysis (RNAseq) to identify differentially affected genes. […] All sequencing runs were performed with three replicates per treatment.
T47D breast cancer cells were grown in 6-well dishes at 50,000 cells per well. […] After 24 h, they were placed in serum-starved media for 48 h. […] RNA was isolated using a Qiagen RNeasy Kit then sent to Novogene for sequencing and bioinformatics analysis.

halo-ERα = biological target: T1, halo-ERα (Homo sapiens, UniProt P03372); assay: Live-cell halo-ERα accumulation assay in T47D cells; format: cell-based; conditions: 1 μM, 24 h
T1 construct: expressed in transfected cells; host or cells: T47D cells, doxycycline-inducible halo-ERα
T1 sequence (P03372 1-595): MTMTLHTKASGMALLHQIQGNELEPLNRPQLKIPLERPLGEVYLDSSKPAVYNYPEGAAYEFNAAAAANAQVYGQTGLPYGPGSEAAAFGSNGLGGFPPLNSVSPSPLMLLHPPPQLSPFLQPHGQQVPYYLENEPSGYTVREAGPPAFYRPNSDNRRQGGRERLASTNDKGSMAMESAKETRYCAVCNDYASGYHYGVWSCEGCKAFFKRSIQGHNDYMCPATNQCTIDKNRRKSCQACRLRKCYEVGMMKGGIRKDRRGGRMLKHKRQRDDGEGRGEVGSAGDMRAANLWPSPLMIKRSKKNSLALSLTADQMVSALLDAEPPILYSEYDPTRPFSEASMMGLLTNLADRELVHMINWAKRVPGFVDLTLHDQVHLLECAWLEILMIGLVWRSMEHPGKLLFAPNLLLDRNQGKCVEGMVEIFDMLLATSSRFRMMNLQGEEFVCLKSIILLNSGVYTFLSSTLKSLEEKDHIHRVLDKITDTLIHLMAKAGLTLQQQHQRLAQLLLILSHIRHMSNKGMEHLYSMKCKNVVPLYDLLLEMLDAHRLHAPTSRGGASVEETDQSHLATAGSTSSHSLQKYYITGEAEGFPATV
Source text: (§1) SERMs and SERDs differentially affect ERα cellular lifetime/accumulation, which correlates with tissue-specific partial agonistic activities. SERMs increase WT ERα lifetime and are partial agonists in the bone and uterine epithelium by maintaining AF-1-dependent transcriptional coactivator recruitment. SERDs induce rapid WT ERα degradation and are pure antagonists[14],[17],[19],[22],[33]. […] We used an in-cell Western approach to measure how a subset of T6Is affected ERα levels in MCF7:WS8 breast cancer cells. […] A live cell halo-tagged ERα assay was then used to measure the impact of an expanded set of T6Is on receptor accumulation in T47D breast cancer cells after 24 h treatment. […] The difference between T6I-14 and 4OHT was not statistically significant in this assay. […] The IC50 values generally trended with observed differences in transcriptional IC50 (Fig. 2), while the effect at maximum dose varied greatly.
This assay was performed in accordance with a previous report. T47D breast cancer cells with a halo-ERα under a doxycycline (dox) control were grown in 96-well dishes starting at 3000 cells per well. Cells were placed in serum-starved media for 48–72 h then simultaneously treated with 1 µg/mL dox, and 1 µM Halo-TMR direct (Promega, G2991) alongside 5 pm to 1 µM compound for 24 h. […]

ERα-SRC3 binding = biological target: T2, ERα-SRC3 binding (Homo sapiens, UniProt P03372); assay: NanoBiT ERα-SRC3 assay in HEK293T cells; format: cell-based; conditions: 1 μM antagonist + 1 nM E2, 4 h
T2 construct: expressed in transfected cells; host or cells: HEK293T, transient co-transfection of pcDNA3.1 plasmids (gift of D. P. McDonnell)
T2 sequence (P03372 1-595): T1 sequence (P03372 1-595)
Experimental: SERMs and SERDs favor an ERα LBD protein conformation that occludes transcriptional coactivator binding. We used nanoBiT to study how the first set of T6I molecules inhibited ERα and steroid receptor coactivator-3 (SRC3) binding in HEK293T cells. […] Plasmids for smBiT-ERα and lgBiT-SRC3 were kindly donated by Dr. Donald P. McDonnell. Plasmids were co-transfected into HEK293T cells and placed in serum-starved medium for 48 h.
HEK293T cells were grown in 96-well clear bottom, white-walled plates to around 70% confluence. PCDNA 3.1 plasmids containing N-terminally tagged smBiT ERα or lgBiT SRC3 nuclear recognition domain (NRD) were kindly donated by Dr. Donald P. McDonnell. These plasmids were co-transfected with a total of 0.1 µg smBiT ERα and 0.1 µg LgBiT SRC3 NRD using Turbofectin 8.0 at a 3:1 ratio. After 24 h cells were placed in serum-starved media and allowed to acclimate for an additional 48–72 h. […] Data shown are the average of three independent replicates.

ERα [5] = biological target: T3, ERα (Homo sapiens, UniProt P03372); assay: ERE transcriptional reporter gene assay in MCF7 cells; format: cell-based; design: endogenous in cells; host or cells: MCF7 cells with 3x-ERE-GFP reporter; conditions: MCF7, 1 nM E2
T3 sequence (P03372 1-595): T1 sequence (P03372 1-595)
Experimental: A cyclopropyl group was used in place of RAD1901’s ethylamine. […] We initially synthesized 4 derivatives comprised of different pharmacophores on the analogous steroidal A ring (Fig. 2d) and used an ERE reporter gene assay in MCF7 breast cancer cells to measure their transcriptional inhibitory activities.
This assay was performed in accordance with a previous report. MCF7 breast cancer cells with a 3x-estrogen response element-green fluorescent protein (GFP) reporter gene construct under a CMV promoter were plated in 96-well dishes at 3000 cells per well. Cells were cultured for 48 h in stripped media that included charcoal stripped fetal bovine serum (FBS). Cells were treated with increasing concentrations of antiestrogen (5 pm to 1 µM) for 24 h. Subsequently, percent GFP-positive cells were imaged using a BioTek Cytation 5 live cell imager. All assays were performed three times with three technical replicates each.

ERα [6] = biological target: T3, ERα; assay: In-cell Western of ERα levels in T47D cells; format: cell-based; design: In-cell Western of endogenous ERα levels normalized to cell count in T47D breast cancer cells; endogenous in cells; host or cells: T47D breast cancer cells; conditions: 1 μM
Experimental: An in-cell Western assay was used to measure the effect of the purified T6I-29 enantiomers on the accumulation of ERα in T47D breast cancer cells at 1 μM dose.
In-cell Western analysis was performed in a similar manner as previously described. Briefly, T47D or MCF7:WS8 breast cancer cells were grown in blackout 96-well plates starting at 3000 cells per well. After 24 h, cells were placed in serum-starved media and allowed to acclimate for 48–72 h. Cells were treated with hormone, SERM, or SERD alongside vehicle control for 24 h. Only interior wells were used to avoid edge effects. Cells were fixed with 4% formaldehyde and permeabilized with 0.1% Triton X-100. Plates were blocked with Intercept blocking buffer (LI-COR). Santa Cruz F10 anti-ERα antibody (sc-8002) was used as the primary at 1:200-500 dilution. Secondary antibody was a goat anti-mouse IgG 800 IRDye antibody (926-32210) from LI-COR. Cells were also treated with CellTag700 (926-41090) to control for differences in cell count between wells. All data were collected on a LI-COR Odyssey DLx and analyzed using Emperia Studio. Each experiment was comprised of three replicates.

T47D breast cancer cells = assay: Cellular proliferation (label-free cell count), T47D; format: cell-based; conditions: 0.1 and 1 μM, 1 nM E2
Experimental: (§2) In addition, we used a crystal violet assay to measure the effect of T6I-14-1 on MCF7 viability.
MCF7, MCF7:WS:8, Y537S ESR1 MCF7 and T47D breast cancer cell lines were grown in 96-well dishes at a starting cell count of 1000 cells per well. […] Cells were grown in a BioSpa attached to a BioTek Cytation 5 and were automatically counted every twelve hours for 7–10 days or until the E2-only wells reached confluence. Media was replaced every 4 days and drug was maintained in each media change. Each study was repeated three times with three technical replicates each.

MCF7 breast cancer cells = assay: Crystal violet cellular viability assay; format: cell-based; conditions: MCF7, 1 to 1000 nM, 1 nM E2, 7 days
Experimental: as §2
MCF7 breast cancer cells were placed in 24-well dishes at 15,000 cells per well. After 24 h, they were placed in serum-starved media for 48 to 72 h. […] After treatment, cells were stained with 0.4% crystal violet in 50% methanol for 30 min. Cells were washed with PBS to remove excess dye. 500 µL of methanol was then added to each well to dissolve the dye and placed on a rocker for 30 min at room temperature and the absorbance at 570 was recorded.

ERα [7] = biological target: T3, ERα; assay: In-cell Western of ERα levels in MCF7:WS8 cells; format: cell-based; design: endogenous in cells; conditions: MCF7:WS8, 1 μM, 24 h, compared to 4OHT
Source text: as §1
In-cell Western analysis was performed in a similar manner as previously described. Briefly, T47D or MCF7:WS8 breast cancer cells were grown in blackout 96-well plates starting at 3000 cells per well. After 24 h, cells were placed in serum-starved media and allowed to acclimate for 48–72 h. Cells were treated with hormone, SERM, or SERD alongside vehicle control for 24 h. […] All data were collected on a LI-COR Odyssey DLx and analyzed using Emperia Studio. […]

Structure (SMILES): C[C@]12CC[C@@H]3c4ccc(O)cc4C[C@@H](CCCCCCCCC[S+]([O-])CCCC(F)(F)C(F)(F)F)[C@H]3[C@@H]1CC[C@@H]2O (some centres unmarked) [ICI, fulvestrant]
- E2F1 mRNA [1]: reduced impact
- AP1 Induction [2]: 0.25 + 0.08
- CDK1 mRNA ([3]; MCF7:WS8): downregulated its expression
- E2F1, CDK1 and SUMO1 mRNA ([3]; MCF7:WS8, compared with T47D): greater downregulation of E2F1 and CDK1 and upregulation of SUMO1
- SUMO1 protein expression (immunofluorescence) (SUMO1): enriched SUMO1 expression in the nuclei
- SUMO-related differentially expressed genes (RNAseq) [4]: upregulated SUMO1 and downregulated the SENP enzymes
- Reactome pathways relating to SUMO E3 ligases ([4]; 1 μM + 1 nM E2): significantly enriched

Structure (SMILES): CCN1CC(Oc2ccc(C3c4ccc(O)cc4CC4(CC4)N3C(=O)c3ccccc3)cc2)C1 (centres unmarked) [T6I-1]
- halo-ERα accumulation at maximum dose (halo-ERα): SERD-like decrease to ERα levels; also recorded: weak ERα-degrading activities
- AP1 Induction [2]: 0.30 + 0.07
- inhibition of ERα-SRC3 binding (luminescence) (ERα-SRC3 binding): the least
- anti-transcriptional activity (in words) (ERα [5]): ineffective anti-transcriptional agent

Structure (SMILES): CCCN1CCC(COc2ccc(C3c4ccc(O)cc4CC4(CC4)N3C(=O)c3ccccc3)cc2)C1 (centres unmarked) [T6I-14-1]
- AP1 Induction [2]: 0.55 + 0.09
- ERα levels by in-cell Western (ERα [6]): enhanced ERα levels past 4OHT
- inhibition of ERα-SRC3 binding (luminescence) (ERα-SRC3 binding): among the most potent; also recorded: significant reduction compared to both 4OHT (p = 0.03) and E2 (p = 0.004)
- cell count after 7 days (fold-change normalized to vehicle) (T47D breast cancer cells): significantly more effective (p = 0.01) than ICI
- cellular viability (crystal violet) (MCF7 breast cancer cells): reduced MCF7 cellular viability across all doses compared to 4OHT and ICI

Structure (SMILES): CCCN1CCC(COc2ccc(C3c4ccc(O)cc4CC4(CC4)N3C(=O)c3ccccc3)cc2)C1 (centres unmarked) [T6I-14]
- ERα levels by in-cell Western (ERα [7]): significant enhancement
